Columns and labels:
Type in all cases: functional, cell-based
SK-OV-3 = experiment: Cytotoxicity against human SKOV3 cells assessed as reduction in cell viability after 72 hrs by CellTiter-Glo luminescence assay; details: SK-OV-3, 72 h
[1] = Cytotoxicity against human ACC-MESO1 cells assessed as reduction in cell viability after 72 hrs by CellTiter-Glo luminescence assay; details: ACC-MESO-1, 72 h
Jurkat = experiment: Cytotoxicity against human Jurkat cells assessed as reduction in cell viability after 72 hrs by CellTiter-Glo luminescence assay

Question: With `CSCCC(NC(=S)C(NC(=O)C(C)=O)C(C)C)C(=S)NC(C)C(=O)NC(C)C(=S)NC(C)C(=S)NC(C)C(=O)NC1C(=O)NC(C(C)C)C(=O)NC(C)C(=O)NC(Cc2ccccc2)C(=O)NC(C(O)c2cn(C)c[n+]2C)C(=O)N/C=C\SC1C` (stereo not drawn) as the molecule, how does the IC50 (SK-OV-3) read?
Answer: 2100 nM

Question: And the IC50 [1]?
Answer: 700 nM

Question: And the IC50 (Jurkat)?
Answer: 400 nM

Source: ChEMBL document CHEMBL4138278, “Neothioviridamide, a Polythioamide Compound Produced by Heterologous Expression of a Streptomyces sp. Cryptic RiPP Biosynthetic Gene Cluster” (J Nat Prod, 2018)
